These results are taken from article PMC9329436, “Optimization of the 4-anilinoquin(az)oline scaffold as epidermal growth factor receptor (EGFR) inhibitors for chordoma utilizing a toxicology profiling assay platform” (Scientific Reports, 2022).

Test in all cases: 33PanQinase activity assay
Holding throughout (format): biochemical

For one test, the target named is T1, PRKG2 (Homo sapiens, UniProt Q13237).
T1 sequence (Q13237 1-762): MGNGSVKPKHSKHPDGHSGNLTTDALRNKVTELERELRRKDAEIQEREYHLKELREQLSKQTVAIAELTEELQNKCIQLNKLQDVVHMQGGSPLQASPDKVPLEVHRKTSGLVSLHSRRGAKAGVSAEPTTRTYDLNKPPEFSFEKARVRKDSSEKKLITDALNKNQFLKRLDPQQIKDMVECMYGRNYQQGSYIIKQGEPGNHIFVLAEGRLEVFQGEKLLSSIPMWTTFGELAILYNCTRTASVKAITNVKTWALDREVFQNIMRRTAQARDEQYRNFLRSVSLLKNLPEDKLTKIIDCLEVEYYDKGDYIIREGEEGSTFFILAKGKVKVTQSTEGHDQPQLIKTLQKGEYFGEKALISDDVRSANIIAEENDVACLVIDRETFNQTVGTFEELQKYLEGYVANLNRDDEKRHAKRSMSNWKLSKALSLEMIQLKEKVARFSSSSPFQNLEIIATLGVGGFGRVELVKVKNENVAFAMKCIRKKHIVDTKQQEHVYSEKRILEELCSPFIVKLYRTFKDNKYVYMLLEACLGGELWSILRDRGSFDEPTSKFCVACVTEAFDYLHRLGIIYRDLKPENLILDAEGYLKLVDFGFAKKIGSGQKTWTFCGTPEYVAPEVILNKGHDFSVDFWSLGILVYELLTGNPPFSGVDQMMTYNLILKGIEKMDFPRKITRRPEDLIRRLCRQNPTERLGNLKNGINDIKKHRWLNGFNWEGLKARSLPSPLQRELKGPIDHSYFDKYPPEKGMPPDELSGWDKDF
As to conditions: for Residual activity, PRKG2: kinase PRKG2, singlicate. The text has this: (§1) Table S4. Profiling of two compounds at two concentrations against 320 wild-type protein kinases; singlicate measurement; Residual activities (% of control).

In the next test the target is T2, EPHA6 (Homo sapiens, UniProt Q9UF33).
T2 sequence (Q9UF33 23-1036): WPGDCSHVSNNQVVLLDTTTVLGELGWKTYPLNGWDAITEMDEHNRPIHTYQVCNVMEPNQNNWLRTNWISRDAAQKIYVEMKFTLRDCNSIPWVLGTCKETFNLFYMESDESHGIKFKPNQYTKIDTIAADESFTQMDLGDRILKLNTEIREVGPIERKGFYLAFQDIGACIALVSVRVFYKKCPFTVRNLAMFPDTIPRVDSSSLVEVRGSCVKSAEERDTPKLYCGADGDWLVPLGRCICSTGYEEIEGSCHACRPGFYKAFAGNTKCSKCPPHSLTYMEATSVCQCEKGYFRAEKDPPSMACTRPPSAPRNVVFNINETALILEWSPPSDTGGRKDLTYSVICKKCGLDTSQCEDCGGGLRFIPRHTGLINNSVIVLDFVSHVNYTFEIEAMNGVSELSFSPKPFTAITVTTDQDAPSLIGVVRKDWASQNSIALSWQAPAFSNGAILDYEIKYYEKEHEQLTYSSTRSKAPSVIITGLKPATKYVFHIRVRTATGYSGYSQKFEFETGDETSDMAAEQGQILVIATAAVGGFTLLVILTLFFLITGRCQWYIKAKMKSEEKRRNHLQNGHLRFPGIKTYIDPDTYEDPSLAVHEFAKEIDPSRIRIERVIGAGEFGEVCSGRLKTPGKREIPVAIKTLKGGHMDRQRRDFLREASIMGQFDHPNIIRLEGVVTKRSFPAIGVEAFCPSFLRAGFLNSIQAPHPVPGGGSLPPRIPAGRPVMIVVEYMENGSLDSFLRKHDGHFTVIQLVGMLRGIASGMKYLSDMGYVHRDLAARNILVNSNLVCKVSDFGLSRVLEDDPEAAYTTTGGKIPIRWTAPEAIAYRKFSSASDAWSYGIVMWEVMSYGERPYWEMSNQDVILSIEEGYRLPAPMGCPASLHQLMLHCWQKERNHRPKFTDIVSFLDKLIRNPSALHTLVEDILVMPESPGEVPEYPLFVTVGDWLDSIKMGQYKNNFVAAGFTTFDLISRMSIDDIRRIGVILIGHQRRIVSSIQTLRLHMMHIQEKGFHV
Conditions: for Residual activity: singlicate.
Text: as §1

The target of another test is T3, DDR2 (Homo sapiens, UniProt Q16832).
T3 sequence (Q16832 22-855): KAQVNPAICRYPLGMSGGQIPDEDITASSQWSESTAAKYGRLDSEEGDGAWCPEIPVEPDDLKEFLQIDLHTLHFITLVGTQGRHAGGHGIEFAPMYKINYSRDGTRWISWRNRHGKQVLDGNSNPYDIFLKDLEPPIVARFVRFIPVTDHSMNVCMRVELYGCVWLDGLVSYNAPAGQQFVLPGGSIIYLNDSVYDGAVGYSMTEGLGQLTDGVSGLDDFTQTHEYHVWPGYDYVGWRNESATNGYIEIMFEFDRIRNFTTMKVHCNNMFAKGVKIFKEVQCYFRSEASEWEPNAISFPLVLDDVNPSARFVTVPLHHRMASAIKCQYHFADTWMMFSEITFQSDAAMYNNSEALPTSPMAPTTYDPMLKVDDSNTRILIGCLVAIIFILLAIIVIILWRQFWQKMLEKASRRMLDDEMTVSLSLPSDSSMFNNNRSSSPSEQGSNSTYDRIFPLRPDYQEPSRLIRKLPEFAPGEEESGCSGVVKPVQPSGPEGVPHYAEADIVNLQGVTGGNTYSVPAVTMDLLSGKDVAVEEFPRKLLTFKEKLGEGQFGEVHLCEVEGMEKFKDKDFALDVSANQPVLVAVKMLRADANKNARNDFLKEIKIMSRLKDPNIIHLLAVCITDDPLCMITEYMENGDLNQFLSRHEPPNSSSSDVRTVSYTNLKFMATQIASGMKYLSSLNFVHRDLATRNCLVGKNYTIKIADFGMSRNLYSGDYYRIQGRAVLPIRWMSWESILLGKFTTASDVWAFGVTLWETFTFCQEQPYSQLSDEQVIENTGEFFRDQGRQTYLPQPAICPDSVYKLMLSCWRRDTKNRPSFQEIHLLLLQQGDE
As to conditions: for Residual activity: singlicate.
Text: as §1

Another test deals with LCK (Homo sapiens, UniProt P06239). Conditions: for Residual activity: LCK, singlicate.
Text: as §1

The target in the next test is RIPK2 (Homo sapiens, UniProt O43353). As to conditions: for Residual activity, RIPK2: kinase RIPK2, singlicate.
Text: as §1

Molecules are shown by their SMILES. A value given as a limit tells only on which side of the number the result lay.

LCK, sequence (P06239 whole entry): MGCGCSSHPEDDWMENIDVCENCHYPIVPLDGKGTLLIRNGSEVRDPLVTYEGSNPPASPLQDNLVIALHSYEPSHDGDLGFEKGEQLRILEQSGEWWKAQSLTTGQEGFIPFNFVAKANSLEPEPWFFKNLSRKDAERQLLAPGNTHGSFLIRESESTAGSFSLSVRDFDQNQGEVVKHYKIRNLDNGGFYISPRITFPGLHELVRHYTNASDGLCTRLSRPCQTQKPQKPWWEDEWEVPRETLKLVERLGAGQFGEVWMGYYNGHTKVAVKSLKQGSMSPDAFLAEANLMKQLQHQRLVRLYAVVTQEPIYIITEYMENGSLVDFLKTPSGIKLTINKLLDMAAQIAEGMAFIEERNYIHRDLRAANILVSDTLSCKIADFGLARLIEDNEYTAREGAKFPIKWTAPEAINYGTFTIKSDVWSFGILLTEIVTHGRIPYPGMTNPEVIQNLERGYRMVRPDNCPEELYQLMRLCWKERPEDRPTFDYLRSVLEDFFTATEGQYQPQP
RIPK2, sequence (O43353 whole entry): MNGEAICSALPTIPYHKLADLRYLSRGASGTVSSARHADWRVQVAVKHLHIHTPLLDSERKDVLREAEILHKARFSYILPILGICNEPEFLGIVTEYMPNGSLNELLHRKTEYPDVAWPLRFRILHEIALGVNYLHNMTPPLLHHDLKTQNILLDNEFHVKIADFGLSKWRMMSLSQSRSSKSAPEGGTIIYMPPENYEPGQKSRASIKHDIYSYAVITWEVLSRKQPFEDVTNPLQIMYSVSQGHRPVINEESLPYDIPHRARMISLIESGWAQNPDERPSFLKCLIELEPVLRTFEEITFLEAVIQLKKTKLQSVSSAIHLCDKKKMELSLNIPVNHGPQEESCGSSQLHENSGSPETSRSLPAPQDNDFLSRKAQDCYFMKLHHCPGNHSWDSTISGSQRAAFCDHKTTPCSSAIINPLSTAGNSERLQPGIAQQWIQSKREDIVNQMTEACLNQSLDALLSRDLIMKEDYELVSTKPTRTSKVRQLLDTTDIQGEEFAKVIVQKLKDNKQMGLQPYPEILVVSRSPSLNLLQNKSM

Take `C#Cc1cc(Nc2ncnc3cc(OC)c(OC)cc23)ccc1Cl` [Compound 45]: the “Residual activity, PRKG2” value is listed as 80 % of control at PRKG2 (assay conc. 1.0E-06 M) and 118 % of control at PRKG2 (assay conc. 1.0E-07 M). Moreover, the EPHA6 inhibition on EPHA6 (10 μM) is listed as more than 50%. The Residual activity on EPHA6 (EPHA6, 1.0E-06 M) is reported as 35 % of control; at EPHA6 (EPHA6, 1.0E-07 M), 89 % of control; at DDR2 (DDR2, 1.0E-06 M) it was 35 % of control; on DDR2 (DDR2, 1.0E-07 M), 87 % of control; at LCK (1.0E-06 M) it was 36 % of control; at LCK (1.0E-07 M), 94 % of control. Besides, on DDR2 (10 μM), the DDR2 inhibition is more than 50%. The same compound had an LCK inhibition on LCK (10 μM) of more than 50%. In addition, the RIPK2 inhibition on RIPK2 (10 μM) is on record as more than 50%. Also, the “Residual activity, RIPK2” value at RIPK2 (assay conc. 1.0E-06 M) is reported as 13 % of control; at RIPK2 (assay conc. 1.0E-07 M), 59 % of control.
In turn, `C#Cc1cc(Nc2ncnc3cc(I)ccc23)ccc1Cl` [Compound 41] gave a PRKG2 inhibition on PRKG2 (10 μM) of more than 50%. In addition, the “Residual activity, PRKG2” value on PRKG2 (assay conc. 1.0E-06 M) was 20 % of control; on PRKG2 (assay conc. 1.0E-07 M) it was 100 % of control. In addition, the Residual activity on EPHA6 (EPHA6, 1.0E-06 M) is 75 % of control; at EPHA6 (EPHA6, 1.0E-07 M) it was 94 % of control; on DDR2 (DDR2, 1.0E-06 M), 81 % of control; at DDR2 (DDR2, 1.0E-07 M) it was 91 % of control; at LCK (1.0E-06 M) it was 59 % of control; at LCK (1.0E-07 M) it was 78 % of control. The “Residual activity, RIPK2” value on RIPK2 (assay conc. 1.0E-06 M) was 96 % of control; at RIPK2 (assay conc. 1.0E-07 M), 107 % of control.
